Test results from patent publication US8486447B2, “Pharmaceutical formulation” (Novartis AG, priority 2003, dated 2013).

Assay: HPLC analysis of thermal degradation of drug substance and melt-processed solid dispersions
Type: physicochemical
Details: for HPLC analysis (thermal degradation): Table 1

## CN(Cc1ccccc1)C(=O)[C@H](Cc1ccc2ccccc2c1)N(C)C(=O)[C@@H]1CCCN1c1nc(=O)c2ccccc2[nH]1 [TKA731, (S)-1-(4-Oxo-1,4-dihydro-quinazolin-2-yl)-pyrrolidine-2-carboxylic acid[(S)-1-(benzyl-methyl-carbamoyl)-2-naphthalen-2-yl-ethyl]-methyl-amide]
Drug load 100%, PVPK-30 0%, amorphous TKA731
  HPLC analysis (thermal degradation): No degradation
Solid dispersion, drug load 20%, PVPK-30 80%
  HPLC analysis (thermal degradation): No degradation
Solid dispersion, drug load 30%, PVPK-30 70%
  HPLC analysis (thermal degradation): No degradation
Solid dispersion, drug load 40%, PVPK-30 60%
  HPLC analysis (thermal degradation): No degradation
Table 2, starting from amorphous drug, Tg 94.5 °C
  HPLC analysis (degradation): No
Table 2, starting from crystalline drug, melting point 175 °C
  HPLC analysis (degradation): 20%
Table 3, amorphous drug load 20%, PVPK-30 70%, sorbitol 10%, processing temperature 170 °C
  HPLC analysis (degradation): No
Table 3, amorphous drug load 30%, PVPK-30 65%, sorbitol 5%, processing temperature 170 °C
  HPLC analysis (degradation): No
Table 3, amorphous drug load 40%, PVPK-30 60%, sorbitol 0%, processing temperature 170 °C
  HPLC analysis (degradation): No
